According to ChEMBL document CHEMBL5053543, “Macrocyclic BACE1 inhibitors with hydrophobic cross-linked structures: Optimization of ring size and ring structure” (Bioorg Med Chem, 2021):

Legend:
Beta-secretase 1 [1] = target: T1, Beta-secretase 1 (Homo sapiens, UniProt P56817); assay: Inhibition of recombinant BACE1 (unknown origin) using H-Ile-Lys-Thr-Glu-Glu-Ile-Ser-Glu-Val-Asn-Leu-Asp-Ala-Glu-Phe-Arg-His-Asp-Ser-Gly-NH2 peptide as substrate measured after 90 mins by analytical HPLC analysis
Beta-secretase 1 [2] = target: T1, Beta-secretase 1; assay: Inhibition of recombinant BACE1 (unknown origin) at 1500 uM using H-Ile-Lys-Thr-Glu-Glu-Ile-Ser-Glu-Val-Asn-Leu-Asp-Ala-Glu-Phe-Arg-His-Asp-Ser-Gly-NH2 peptide as substrate measured after 90 mins by analytical HPLC analysis relative to control

T1 sequence (P56817 whole entry): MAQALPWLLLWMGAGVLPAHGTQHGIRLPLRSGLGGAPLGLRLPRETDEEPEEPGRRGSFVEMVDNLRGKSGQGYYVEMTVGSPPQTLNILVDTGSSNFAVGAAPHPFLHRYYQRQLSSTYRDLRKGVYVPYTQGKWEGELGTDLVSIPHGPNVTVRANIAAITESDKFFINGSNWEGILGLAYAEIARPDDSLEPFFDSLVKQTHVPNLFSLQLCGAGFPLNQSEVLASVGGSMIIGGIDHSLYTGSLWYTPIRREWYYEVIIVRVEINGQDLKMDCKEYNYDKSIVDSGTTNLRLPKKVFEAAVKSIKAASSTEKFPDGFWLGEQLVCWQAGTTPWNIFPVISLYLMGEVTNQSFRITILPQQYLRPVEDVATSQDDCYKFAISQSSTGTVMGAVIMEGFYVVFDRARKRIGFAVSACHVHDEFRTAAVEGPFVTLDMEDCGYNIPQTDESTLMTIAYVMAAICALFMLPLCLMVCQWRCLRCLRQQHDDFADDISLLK

IC50 (Beta-secretase 1 [1]) [µM] | inhibition (Beta-secretase 1 [2]) [%] | SMILES
1420 | – | CCC[C@@H]1NC(=O)[C@@H](NC(=O)[C@@H](N)CCC(=O)O)[C@@H](C)OC/C=C/C[C@@H]([C@H](O)CNc2ccc(C)cc2)NC1=O
6.1 | – | CCC[C@@H]1NC(=O)[C@@H](NC(=O)[C@@H](N)CCC(=O)O)C(C)(C)OCCCC[C@@H]([C@H](O)CNc2ccc(C)cc2)NC1=O
1050 | – | CCC[C@@H]1NC(=O)[C@@H](NC(=O)[C@@H](N)CCC(=O)O)C/C=C\CC[C@@H]([C@H](O)CNc2ccc(C)cc2)NC1=O
117 | – | CCC[C@@H]1NC(=O)[C@@H](NC(=O)[C@@H](N)CCC(=O)O)[C@@H](C)OC/C=C\C[C@@H]([C@H](O)CNc2ccc(C)cc2)NC1=O
6.1 | – | CCC[C@H](NC(=O)[C@@H](NC(=O)[C@@H](N)CCC(=O)O)[C@@H](C)CC)C(=O)N[C@@H](CC(C)C)[C@H](O)CNc1ccc(C)cc1
1000 | – | CCC[C@@H]1NC(=O)[C@@H](NC(=O)[C@@H](N)CCC(=O)O)[C@@H](C)OCCCC[C@@H]([C@H](O)CNc2ccc(C)cc2)NC1=O
780 | – | CCC[C@@H]1NC(=O)[C@@H](NC(=O)[C@@H](N)CCC(=O)O)CCCCCC[C@@H]([C@H](O)CNc2ccc(C)cc2)NC1=O
> 1500 | 20 | CCC[C@@H]1NC(=O)[C@@H](NC(=O)[C@@H](N)CCC(=O)O)COC/C=C/CC[C@@H]([C@H](O)CNc2ccc(C)cc2)NC1=O
1400 | – | CCC[C@@H]1NC(=O)[C@@H](NC(=O)[C@@H](N)CCC(=O)O)CCCCC[C@@H]([C@H](O)CNc2ccc(C)cc2)NC1=O
135 | – | CCC[C@@H]1NC(=O)[C@@H](NC(=O)[C@@H](N)CCC(=O)O)[C@H](C)OCCCC[C@@H]([C@H](O)CNc2ccc(C)cc2)NC1=O
1.6 | – | CCC[C@@H]1NC(=O)[C@@H](NC(=O)[C@@H](N)CCC(=O)O)C(C)(C)OCCCC[C@@H]([C@H](O)CNc2ccc(CC(=O)O)cc2)NC1=O
> 1500 | 20 | CCC[C@@H]1NC(=O)[C@@H](NC(=O)[C@@H](N)CCC(=O)O)C/C=C/CC[C@@H]([C@H](O)CNc2ccc(C)cc2)NC1=O
3.9 | – | CCC[C@@H]1NC(=O)[C@@H](NC(=O)[C@@H](N)CCC(=O)O)C(C)(C)OC/C=C\C[C@@H]([C@H](O)CNc2ccc(C)cc2)NC1=O
1.2 | – | CCC[C@@H]1NC(=O)[C@@H](NC(=O)[C@@H](N)CCC(=O)O)C(C)(C)OC/C=C\C[C@@H]([C@H](O)CNc2ccc(CC(=O)O)cc2)NC1=O
1410 | – | CCC[C@@H]1NC(=O)[C@@H](NC(=O)[C@@H](N)CCC(=O)O)CC/C=C\CC[C@@H]([C@H](O)CNc2ccc(C)cc2)NC1=O
11.7 | – | CCC[C@@H]1NC(=O)[C@@H](NC(=O)[C@@H](N)CCC(=O)O)[C@H](C)OC/C=C\C[C@@H]([C@H](O)CNc2ccc(C)cc2)NC1=O
> 1500 | 20 | CCC[C@@H]1NC(=O)[C@@H](NC(=O)[C@@H](N)CCC(=O)O)COC/C=C\CC[C@@H]([C@H](O)CNc2ccc(C)cc2)NC1=O
380 | – | CCC[C@@H]1NC(=O)[C@@H](NC(=O)[C@@H](N)CCC(=O)O)CC/C=C/CC[C@@H]([C@H](O)CNc2ccc(C)cc2)NC1=O
1000 | – | CCC[C@@H]1NC(=O)[C@@H](NC(=O)[C@@H](N)CCC(=O)O)[C@H](C)OC/C=C/C[C@@H]([C@H](O)CNc2ccc(C)cc2)NC1=O
> 1500 | 20 | CCC[C@@H]1NC(=O)[C@@H](NC(=O)[C@@H](N)CCC(=O)O)COCCCCC[C@@H]([C@H](O)CNc2ccc(C)cc2)NC1=O
